Test results reported in PubChem BioAssay AID1259407 (Chemical Carcinogenesis Research Information System (CCRIS), 2018).
Activity calls are given as the source filed them. The rule behind the calls is not given here.

Tested on: CCRIS mutagenicity, Ames/micronucleus/aberration tests
Experiment: CCRIS mutagenicity studies
Settings: Test System: AMES SALMONELLA TYPHIMURIUM

Which results are given for O=Cc1ccc(Cl)c(Cl)c1?
mutagenic call (Strain/Indicator: TA97, Metabolic Activation: HAMSTER, LIVER, S-9, AROCLOR 1254 (10%), Method: PREINCUBATION): inactive; negative; mutagenic call (Strain/Indicator: TA97, Metabolic Activation: HAMSTER, LIVER, S-9, AROCLOR 1254 (30%), Method: PREINCUBATION): inactive; negative; mutagenic call (Strain/Indicator: TA97, Metabolic Activation: NONE, Method: PREINCUBATION): inactive; negative; mutagenic call (Strain/Indicator: TA97, Metabolic Activation: RAT, LIVER, S-9, AROCLOR 1254 (10%), Method: PREINCUBATION): inactive; negative; mutagenic call (Strain/Indicator: TA97, Metabolic Activation: RAT, LIVER, S-9, AROCLOR 1254 (30%), Method: PREINCUBATION): inactive; negative; mutagenic call (Strain/Indicator: TA98, Metabolic Activation: HAMSTER, LIVER, S-9, AROCLOR 1254 (10%), Method: PREINCUBATION): inactive; negative; mutagenic call (Strain/Indicator: TA98, Metabolic Activation: HAMSTER, LIVER, S-9, AROCLOR 1254 (30%), Method: PREINCUBATION): inactive; negative; mutagenic call (Strain/Indicator: TA98, Metabolic Activation: NONE, Method: PREINCUBATION): inactive; negative; mutagenic call (Strain/Indicator: TA98, Metabolic Activation: RAT, LIVER, S-9, AROCLOR 1254 (10%), Method: PREINCUBATION): inactive; negative; mutagenic call (Strain/Indicator: TA98, Metabolic Activation: RAT, LIVER, S-9, AROCLOR 1254 (30%), Method: PREINCUBATION): inactive; negative; mutagenic call (Strain/Indicator: TA100, Metabolic Activation: HAMSTER, LIVER, S-9, AROCLOR 1254 (10%), Method: PREINCUBATION): inactive; negative; mutagenic call (Strain/Indicator: TA100, Metabolic Activation: HAMSTER, LIVER, S-9, AROCLOR 1254 (30%), Method: PREINCUBATION): inactive; negative; mutagenic call (Strain/Indicator: TA100, Metabolic Activation: NONE, Method: PREINCUBATION): inactive; negative; mutagenic call (Strain/Indicator: TA100, Metabolic Activation: RAT, LIVER, S-9, AROCLOR 1254 (10%), Method: PREINCUBATION): inactive; negative; mutagenic call (Strain/Indicator: TA100, Metabolic Activation: RAT, LIVER, S-9, AROCLOR 1254 (30%), Method: PREINCUBATION): inactive; negative; mutagenic call (Strain/Indicator: TA104, Metabolic Activation: HAMSTER, LIVER, S-9, AROCLOR 1254 (10%), Method: PREINCUBATION): inactive; negative; mutagenic call (Strain/Indicator: TA104, Metabolic Activation: HAMSTER, LIVER, S-9, AROCLOR 1254 (30%), Method: PREINCUBATION): inactive; negative; mutagenic call (Strain/Indicator: TA104, Metabolic Activation: NONE, Method: PREINCUBATION): inactive; negative; mutagenic call (Strain/Indicator: TA104, Metabolic Activation: RAT, LIVER, S-9, AROCLOR 1254 (10%), Method: PREINCUBATION): inactive; negative; mutagenic call (Strain/Indicator: TA104, Metabolic Activation: RAT, LIVER, S-9, AROCLOR 1254 (30%), Method: PREINCUBATION): inactive; negative; mutagenic call (Strain/Indicator: TA1535, Metabolic Activation: HAMSTER, LIVER, S-9, AROCLOR 1254 (10%), Method: PREINCUBATION): inactive; negative; mutagenic call (Strain/Indicator: TA1535, Metabolic Activation: HAMSTER, LIVER, S-9, AROCLOR 1254 (30%), Method: PREINCUBATION): inactive; negative; mutagenic call (Strain/Indicator: TA1535, Metabolic Activation: NONE, Method: PREINCUBATION): inactive; negative; mutagenic call (Strain/Indicator: TA1535, Metabolic Activation: RAT, LIVER, S-9, AROCLOR 1254 (10%), Method: PREINCUBATION): inactive; negative; mutagenic call (Strain/Indicator: TA1535, Metabolic Activation: RAT, LIVER, S-9, AROCLOR 1254 (30%), Method: PREINCUBATION): inactive; negative

Which mutagenic call (Strain/Indicator: D3052, Metabolic Activation: NONE, Method: PREINCUBATION, LIQUID INCUBATION) does the source give for C/C(Cl)=C/C=O here?
Its mutagenic call is “active; positive”.

What about the mutagenic call (Strain/Indicator: TA98, Metabolic Activation: NONE, Method: PREINCUBATION, LIQUID INCUBATION) of the same compound?
Its mutagenic call is “inactive; negative”.

And the mutagenic call (Strain/Indicator: TA100, Metabolic Activation: NONE, Method: PREINCUBATION, LIQUID INCUBATION)?
The mutagenic call was “inactive; negative”.

And the mutagenic call (Strain/Indicator: TA1535, Metabolic Activation: NONE, Method: PREINCUBATION, LIQUID INCUBATION)?
The mutagenic call was “inactive; negative”.

And the mutagenic call (Strain/Indicator: TA1538, Metabolic Activation: NONE, Method: PREINCUBATION, LIQUID INCUBATION)?
Its mutagenic call is “inactive; negative”.

Cc1cc(Cl)ccc1OC(C)C(=O)O (stereo not drawn) was tested. Which mutagenic call (Strain/Indicator: TA97, Metabolic Activation: NONE, Method: STANDARD PLATE) did it give?
The mutagenic call was “inactive; negative”.

What about the mutagenic call (Strain/Indicator: TA97, Metabolic Activation: RAT, LIVER, S-9, AROCLOR 1254, Method: STANDARD PLATE) of the same compound?
The mutagenic call was “inactive; negative”.

And the mutagenic call (Strain/Indicator: TA98, Metabolic Activation: NONE, Method: STANDARD PLATE)?
The mutagenic call was “inactive; negative”.

And the mutagenic call (Strain/Indicator: TA98, Metabolic Activation: RAT, LIVER, S-9, AROCLOR 1254, Method: STANDARD PLATE)?
Its mutagenic call is “inactive; negative”.

What about the mutagenic call (Strain/Indicator: TA100, Metabolic Activation: NONE, Method: STANDARD PLATE) of the same compound?
The mutagenic call was “inactive; negative”.

And the mutagenic call (Strain/Indicator: TA100, Metabolic Activation: RAT, LIVER, S-9, AROCLOR 1254, Method: STANDARD PLATE)?
The mutagenic call was “inactive; negative”.

What about the mutagenic call (Strain/Indicator: TA102, Metabolic Activation: NONE, Method: STANDARD PLATE) of the same compound?
The mutagenic call was “inactive; negative”.

What about the mutagenic call (Strain/Indicator: TA102, Metabolic Activation: RAT, LIVER, S-9, AROCLOR 1254, Method: STANDARD PLATE) of the same compound?
The mutagenic call was “inactive; negative”.
